Reference: patent US20080038728A1, “Quadruple Transformed Cell Line Useful for the Identification of Transport Inhibitors” (priority 2004, published 2008)
Read-outs that look alike come from different tables or passages of the source.

What was measured:
[1] = test system: OATP1B1, OATP1B3, and OATP2B1; assay: Uptake (intracellular accumulation) kinetics in ABCC2/OATP1B1/1B3/2B1 quadruple-transfected MDCKII cells; assay type: in vitro ADME, human; conditions: for Km: human
Protocol: (§1) (a) MDCKII cells were grown on ThinCerts (24-mm diameter, pore size 0.4 μm, pore density 1×10^8 per cm^2) and induced with butyrate as mentioned above. The cells were washed in prewarmed (37° C.) transport buffer (142 mM NaCl, 5 mM KCl, 1 mM KH2PO4, 1.2 mM MgSO4, 1.5 mM CaCl2, 5 mM glucose, and 12.5 mM HEPES, pH 7.3). The ^3H-labeled substrate was dissolved in transport buffer and added either to the apical or to the basolateral compartment at the concentration indicated. After incubation at 37° C., the radioactivity in the opposite compartment was measured by sampling aliquots from the apical or basolateral compartment. Cells were washed 2 times with ice-cold transport buffer containing 0.5% bovine serum albumin and 3 times in ice-cold transport buffer. Intracellular accumulation of radioactivity was calculated by lyzing the cells with 0.2% sodium dodecyl sulfate (SDS) and measuring the radioactivity in the lysate.

OATP1B3 = target: T1, OATP1B3 (Homo sapiens, UniProt Q9NPD5); conditions: BSP uptake, background section; cited from earlier work
T1 sequence (Q9NPD5 1-702): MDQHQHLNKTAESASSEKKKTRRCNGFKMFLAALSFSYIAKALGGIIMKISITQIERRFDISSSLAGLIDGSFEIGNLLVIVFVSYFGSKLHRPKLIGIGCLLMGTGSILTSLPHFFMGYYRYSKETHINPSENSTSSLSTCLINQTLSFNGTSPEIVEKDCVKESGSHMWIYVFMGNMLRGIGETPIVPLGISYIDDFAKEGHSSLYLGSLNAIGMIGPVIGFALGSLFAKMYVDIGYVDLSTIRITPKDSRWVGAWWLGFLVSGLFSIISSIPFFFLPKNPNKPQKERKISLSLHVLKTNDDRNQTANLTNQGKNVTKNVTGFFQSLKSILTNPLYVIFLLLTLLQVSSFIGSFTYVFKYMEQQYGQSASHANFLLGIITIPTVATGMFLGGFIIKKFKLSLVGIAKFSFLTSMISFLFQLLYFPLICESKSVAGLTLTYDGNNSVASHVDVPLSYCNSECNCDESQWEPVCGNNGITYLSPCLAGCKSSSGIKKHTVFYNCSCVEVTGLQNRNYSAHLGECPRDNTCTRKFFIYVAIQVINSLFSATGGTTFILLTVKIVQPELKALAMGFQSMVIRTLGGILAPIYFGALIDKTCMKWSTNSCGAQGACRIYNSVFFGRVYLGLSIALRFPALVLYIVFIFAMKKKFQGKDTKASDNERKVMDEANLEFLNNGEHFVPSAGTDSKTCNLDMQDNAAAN

OATP2B1 [2] = target: T2, OATP2B1 (Homo sapiens, UniProt O94956); conditions: cRNA-injected Xenopus laevis oocytes; cited from earlier work
T2 sequence (O94956 1-709): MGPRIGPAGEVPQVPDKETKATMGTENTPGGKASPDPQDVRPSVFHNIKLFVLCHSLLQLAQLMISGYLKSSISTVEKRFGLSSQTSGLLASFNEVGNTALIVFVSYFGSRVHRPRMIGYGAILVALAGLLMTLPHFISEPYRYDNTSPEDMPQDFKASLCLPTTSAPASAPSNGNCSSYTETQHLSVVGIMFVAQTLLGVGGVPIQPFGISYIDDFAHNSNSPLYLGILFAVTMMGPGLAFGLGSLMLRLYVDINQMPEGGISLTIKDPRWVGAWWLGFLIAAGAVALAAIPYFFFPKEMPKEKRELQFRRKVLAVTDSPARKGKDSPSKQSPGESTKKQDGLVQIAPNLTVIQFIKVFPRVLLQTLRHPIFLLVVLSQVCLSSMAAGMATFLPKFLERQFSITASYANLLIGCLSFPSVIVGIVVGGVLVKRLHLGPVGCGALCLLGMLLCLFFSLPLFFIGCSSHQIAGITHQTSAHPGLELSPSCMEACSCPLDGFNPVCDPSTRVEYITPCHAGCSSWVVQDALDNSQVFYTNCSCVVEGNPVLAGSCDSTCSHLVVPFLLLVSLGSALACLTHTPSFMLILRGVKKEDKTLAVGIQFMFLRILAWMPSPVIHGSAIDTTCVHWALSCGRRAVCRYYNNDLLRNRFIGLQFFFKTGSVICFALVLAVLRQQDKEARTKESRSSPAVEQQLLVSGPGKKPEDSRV

ABCC2 = ABCC2 (Homo sapiens, UniProt Q92887); parameters: expressed in transfected cells; host or cells: MDCKII-ABCC2 single-transfected cells (membrane vesicles); conditions: BSP: Cui et al., 2001; CCK-8: Letschert et al., 2005; cited from earlier work
Chain of ABCC2 (Q92887 whole entry): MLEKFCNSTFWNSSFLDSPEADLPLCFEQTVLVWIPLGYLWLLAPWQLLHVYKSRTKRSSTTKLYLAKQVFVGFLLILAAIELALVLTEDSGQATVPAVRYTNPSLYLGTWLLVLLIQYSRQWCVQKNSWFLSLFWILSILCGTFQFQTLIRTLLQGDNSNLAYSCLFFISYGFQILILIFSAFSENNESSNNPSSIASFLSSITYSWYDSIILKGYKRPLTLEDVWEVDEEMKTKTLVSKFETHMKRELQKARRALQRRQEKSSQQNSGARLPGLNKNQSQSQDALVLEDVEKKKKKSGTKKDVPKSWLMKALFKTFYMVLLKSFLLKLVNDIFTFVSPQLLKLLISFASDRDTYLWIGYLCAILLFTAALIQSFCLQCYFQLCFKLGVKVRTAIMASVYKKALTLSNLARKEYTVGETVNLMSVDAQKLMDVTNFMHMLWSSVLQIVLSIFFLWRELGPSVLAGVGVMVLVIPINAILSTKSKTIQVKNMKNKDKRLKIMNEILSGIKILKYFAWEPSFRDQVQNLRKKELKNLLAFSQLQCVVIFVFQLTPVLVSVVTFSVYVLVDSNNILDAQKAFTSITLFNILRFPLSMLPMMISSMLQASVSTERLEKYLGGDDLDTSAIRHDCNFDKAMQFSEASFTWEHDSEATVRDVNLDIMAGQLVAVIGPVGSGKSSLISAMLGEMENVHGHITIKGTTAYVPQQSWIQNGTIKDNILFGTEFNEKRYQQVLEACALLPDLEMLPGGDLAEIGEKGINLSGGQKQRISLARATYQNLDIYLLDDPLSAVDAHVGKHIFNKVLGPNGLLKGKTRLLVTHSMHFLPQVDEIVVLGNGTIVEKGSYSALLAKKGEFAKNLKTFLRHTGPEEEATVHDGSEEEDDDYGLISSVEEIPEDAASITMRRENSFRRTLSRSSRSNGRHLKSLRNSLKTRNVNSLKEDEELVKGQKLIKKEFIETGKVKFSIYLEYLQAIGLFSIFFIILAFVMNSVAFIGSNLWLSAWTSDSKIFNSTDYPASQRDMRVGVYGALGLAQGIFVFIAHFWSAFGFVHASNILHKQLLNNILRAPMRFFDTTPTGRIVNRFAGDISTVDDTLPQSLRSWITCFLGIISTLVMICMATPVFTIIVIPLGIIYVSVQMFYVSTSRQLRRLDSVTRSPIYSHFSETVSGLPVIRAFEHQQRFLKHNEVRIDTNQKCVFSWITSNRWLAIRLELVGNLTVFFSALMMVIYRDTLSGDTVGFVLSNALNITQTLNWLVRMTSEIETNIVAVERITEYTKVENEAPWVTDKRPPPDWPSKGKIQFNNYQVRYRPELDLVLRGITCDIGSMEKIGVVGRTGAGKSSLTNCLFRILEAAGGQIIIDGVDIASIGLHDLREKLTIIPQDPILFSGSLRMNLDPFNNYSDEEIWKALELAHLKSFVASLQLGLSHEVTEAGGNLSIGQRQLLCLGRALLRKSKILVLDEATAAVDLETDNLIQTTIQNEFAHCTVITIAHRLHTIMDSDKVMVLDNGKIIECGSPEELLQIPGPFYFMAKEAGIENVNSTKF

OATP2B1 [3] = target: T2, OATP2B1; assay: Uptake (intracellular accumulation) kinetics in ABCC2/OATP2B1 double-transfected MDCKII cells; assay type: in vitro ADME; parameters: expressed in transfected cells; host or cells: MDCKII (canine kidney) ABCC2 single-transfectant, further transfected with pcDNA3.1/Hygro(-)-OATP2B1; conditions: cell line ABCC2-OATP2B1; intracellular accumulation of 3H-labeled substrate
Protocol: as §1, with “The cells were washed in prewarmed (37° C.) transport buffer (142 mM NaCl, 5 mM KCl, 1 mM KH2PO4, 1.2 mM MgSO4, 1.5 mM CaCl2, 5 mM glucose, and 12.5 mM HEPES, pH 7.3).” left out

Question: For `O=C1OC(c2ccc(O)c(S(=O)(=O)O)c2)(c2ccc(O)c(S(=O)(=O)O)c2)c2c(Br)c(Br)c(Br)c(Br)c21` [Bromosulfophthalein], which maximal velocity ([1]; ABCC2/OATP1B1/1B3/2B1 quadruple-transfectants) is on record?
Answer: The maximal velocity was 197.8 pmol×mg protein×min^−1.

Question: And the Vmax ([1]; cell line ABCC2-OATP1B1/1B3/2B1 (quadruple-transfectant), intracellular accumulation of 3H-labeled substrate)?
Answer: Its Vmax is 197.8 ± 3.0 pmol · mg protein^−1 · min^−1.

Question: What about the Km ([1]; pH 7.3, cell line ABCC2-OATP1B1/1B3/2B1 (quadruple-transfectant), intracellular accumulation of 3H-labeled substrate, read-out: Km) of the same molecule?
Answer: The Km was 4.8 µM.

Question: What about the Km ([1]; pH 7.3, summary bound for the OATPs, referring to Table 1, read-out: Km values for the OATPs) of the same molecule?
Answer: The Km was < 5 µM.

Question: What about the Km (OATP1B3) of the same molecule?
Answer: Its Km is 3.4 µM.

Question: What about the Km (OATP2B1 [2]) of the same molecule?
Answer: Its Km is 0.7 µM.

Question: What about the Km (ABCC2) of the same molecule?
Answer: The Km was 12 µM.

Question: What about the Vmax (OATP2B1 [3]) of the same molecule?
Answer: The Vmax was 52.8 ± 8.6 pmol · mg protein^−1 · min^−1.
